Key:
[1] = Time resolved luminescence measurement of europium (III) complexes (luminescence, lifetime, water coordination number); type: physicochemical; settings: europium (III) complex
Description: Compounds 8, 11 and 15 each were dissolved in dimethylsulfoxide to prepare 10 mM stock solutions. In addition, europium (III) chloride hexahydrate was dissolved in dimethylsulfoxide to prepare a 10 mM stock solution. Equal volumes of the europium (III) chloride hexahydrate solution were added to the individually prepared solutions of Compounds 8, 11 and 15, and the resulting solutions were left standing for 30 minutes at room temperature to prepare the europium (III) complexes of the Compounds 8, 11 and 15. These solutions were diluted using 100 mM HEPES buffer solution (pH 7.4), and the luminescences of the 8 μM solutions were measured.
(§1) Luminescences were measured using a time resolved measurement. Luminescences were measured for all complexes at an excitation wavelength of 330 nm, a delay time of 0.05 ms and a gate time of 1.00 ms. In addition, the luminescence lifetimes were measured using an excitation wavelength of […], and the luminescence wavelengths were measured using 545 nm for individual terbium complexes and 615 nm for individual europium complexes [100 mM HEPES buffer (pH 7.4) in each 8 μM].
In addition, the luminescence spectra of the europium (III) complexes of Compounds 8, 11 and 15 are shown in FIG. 12, and their luminescence life and water coordination numbers are shown in Table 2.

[2] = Time resolved luminescence measurement of terbium (III) complexes (luminescence, lifetime, water coordination number); type: physicochemical; settings: terbium (III) complex
Description: Compounds 8, 11 and 15 each were dissolved in dimethyl sulfoxide to prepare 10 mM stock solutions. In addition, terbium (III) chloride hexahydrate was dissolved in dimethyl sulfoxide to prepare a 10 mM stock solution. Equal volumes of the terbium (III) chloride hexahydrate solution prepared were added to the individually prepared solutions of Compounds 8, 11 and 15, and, the resulting solutions were left standing for 30 minutes at room temperature to prepare terbium (III) complexes of Compounds 8, 11 and 15. The solutions were diluted using a 100 mM HEPES buffer (pH 7.4), and the luminescences of 8 μM solutions were measured.
as §1
The luminescence spectra of the terbium (III) complexes of Compounds 8, 11 and 15 are shown in FIG. 11, and their luminescence life and water coordination numbers are shown in Table 1.

[3] = 8 μM, 100 mM HEPES buffer (pH 7.4), excitation 330 nm, delay time 0.05 ms, gate time 1.00 ms

Water coordination number [1]: 1.34
Life time (H2O) ([1]; 8 μM in 100 mM HEPES buffer (pH 7.4), luminescence wavelength 615 nm, H2O): 0.59 ms
Luminescence emission (intensity) [1, 3]: almost identical
Life time (D2O) ([1]; luminescence wavelength 615 nm, D2O): 2.38 ms
Water coordination number [2]: 1.23
Life time (H2O) ([2]; 8 μM in 100 mM HEPES buffer (pH 7.4), luminescence wavelength 545 nm, H2O): 1.46 ms
Luminescence emission (intensity) [2, 3]: almost identical
Life time (D2O) ([2]; luminescence wavelength 545 nm, D2O): 2.55 ms
Compound: Cc1cc(=O)[nH]c2cc(NC(=O)CN(CCN(CCN(CC(=O)O)CC(=O)O)CC(=O)O)CC(=O)O)ccc12 [DTPA-cs124]

Reference: patent US20060149043A1, “Fluorescent lanthadine complex” (Japan Science and Technology Agency, priority 2003, published 2006)
